# Assay results reported in ChEMBL document CHEMBL5550154, “Novel biaryloxazolidinone derivatives with broad-spectrum antibacterial activity, favorable drug-like profiles and in vivo efficacy against linezolid-resistant Staphylococcusaureus” (Eur J Med Chem, 2024).
# Active and inactive are the calls of the source. The calls are words filed in the database; no cut-off is given here.
# Tests used:
# [1] = Stability in simulated gastric acid assessed as compound remaining at pH 1.3 measured immediately; assay type: ADME; details: read-out: Stability
# [2] = Stability in simulated gastric acid assessed as compound remaining at pH 1.3 measured at 1 hr; assay type: ADME; details: read-out: Stability
# [3] = Stability in simulated gastric acid assessed as compound remaining at pH 1.3 measured at 1.5 hrs; assay type: ADME; details: read-out: Stability
# Staphylococcus aureus [4] = assay: Antibacterial activity against Linezolid-resistant Staphylococcus aureus infected in systemic infection SPF-kunming mouse model assessed as survival rate at 2.5 mg/kg, IG measured every day for 7 days; assay type: functional; details: po, 168 h, time 7 day
# Staphylococcus aureus [5] = assay: Antibacterial activity against Linezolid-resistant Staphylococcus aureus infected in systemic infection SPF-kunming mouse model assessed as survival rate at 40 mg/kg, IG measured every day for 7 days; assay type: functional; details: po, 168 h, time 7 day
# Staphylococcus aureus [6] = assay: Antibacterial activity against Linezolid-resistant Staphylococcus aureus infected in systemic infection SPF-kunming mouse model assessed as survival rate at 10 mg/kg, IG measured every day for 7 days; assay type: functional, organism-based; details: time 7.0 day
# [7] = biological target: T1, Amine oxidase [flavin-containing] B (Homo sapiens, UniProt P27338); assay: Inhibition of MAO-B (unknown origin) preincubated with compound for 15 mins followed by substrate addition and measured after 60 mins by luminescence based microplate reader analysis; assay type: toxicity
# T1 sequence (P27338 whole entry): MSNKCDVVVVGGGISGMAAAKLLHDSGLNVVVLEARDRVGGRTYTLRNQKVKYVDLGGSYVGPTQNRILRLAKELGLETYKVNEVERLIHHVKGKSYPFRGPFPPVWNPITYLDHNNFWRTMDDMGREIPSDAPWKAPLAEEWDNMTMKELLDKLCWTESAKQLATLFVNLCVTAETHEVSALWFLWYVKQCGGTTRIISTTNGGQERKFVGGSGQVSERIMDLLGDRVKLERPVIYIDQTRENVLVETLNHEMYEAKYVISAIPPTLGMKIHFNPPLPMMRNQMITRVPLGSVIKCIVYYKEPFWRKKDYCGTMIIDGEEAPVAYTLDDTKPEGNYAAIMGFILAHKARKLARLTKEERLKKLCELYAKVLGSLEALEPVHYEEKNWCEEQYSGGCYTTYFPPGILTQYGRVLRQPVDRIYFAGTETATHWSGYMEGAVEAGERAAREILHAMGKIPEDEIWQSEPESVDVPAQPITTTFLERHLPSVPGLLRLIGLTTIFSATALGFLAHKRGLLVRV
# Staphylococcus aureus [8] = assay: Antibacterial activity against methicillin-sensitive Staphylococcus aureus assessed as inhibition of bacterial growth; assay type: functional
# Staphylococcus aureus [9] = assay: Antibacterial activity against vancomycin-resistant Staphylococcus aureus assessed as inhibition of bacterial growth; assay type: functional
smiles,measurement,setting,value
CC(C)N/N=C/c1ccc(-c2ccc(N3C[C@H](CO)OC3=O)cc2F)cn1,remaining at 0 h,[1],100%
same,remaining at 1 h,[2],94.3%
same,remaining at 1.5 h,[3],90.8%
O=C1O[C@@H](CO)CN1c1ccc(-c2ccc(/C=N/N3CCOCC3)nc2)c(F)c1,survival at 2.5 mg/kg,Staphylococcus aureus [4],0%
same,survival at 40 mg/kg,Staphylococcus aureus [5],100%
same,Activity,Staphylococcus aureus [6],Active
same,IC50,[7],34.8 µM
CC(=O)NC[C@H]1CN(c2ccc(N3CCOCC3)c(F)c2)C(=O)O1 [LINEZOLID],MIC,Staphylococcus aureus [8],1 µg/mL
same,MIC,Staphylococcus aureus [9],1 µg/mL
